We go through 15 compounds from patent US12662489B2 (Sitryx Therapeutics Limited, priority 2023, dated 2026).

For test [1], the target named is T1, MTHFD1 recombinant human enzyme (Homo sapiens, UniProt P11586).
T1 sequence (P11586 2-291 limits assumed): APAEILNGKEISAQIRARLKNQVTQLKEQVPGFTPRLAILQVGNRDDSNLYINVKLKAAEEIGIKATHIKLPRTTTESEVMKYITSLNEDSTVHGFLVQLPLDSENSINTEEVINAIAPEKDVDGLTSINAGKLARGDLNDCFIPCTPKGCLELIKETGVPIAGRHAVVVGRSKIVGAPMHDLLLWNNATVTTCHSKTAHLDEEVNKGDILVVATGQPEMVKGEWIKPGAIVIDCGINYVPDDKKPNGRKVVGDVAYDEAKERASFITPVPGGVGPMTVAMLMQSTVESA
The test is described as follows: MTHFD1 inhibition assay (NAD(P)H-Glo luminescence). The settings on record: MTHFD1 IC50, recombinant human enzyme 200 nM, NADP, band.

Test [2] addresses T2, MTHFD2 recombinant human enzyme (Homo sapiens, UniProt P13995).
T2 sequence (P13995 36-350): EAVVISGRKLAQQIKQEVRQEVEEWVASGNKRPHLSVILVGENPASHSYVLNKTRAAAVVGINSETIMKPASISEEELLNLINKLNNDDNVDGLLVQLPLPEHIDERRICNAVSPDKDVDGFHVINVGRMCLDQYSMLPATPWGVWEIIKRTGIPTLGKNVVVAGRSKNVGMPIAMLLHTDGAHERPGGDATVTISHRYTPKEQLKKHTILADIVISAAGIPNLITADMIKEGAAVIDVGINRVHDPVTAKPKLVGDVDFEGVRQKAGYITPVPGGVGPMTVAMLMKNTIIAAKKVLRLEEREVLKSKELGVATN
Put plainly: MTHFD2 inhibition assay (NAD(P)H-Glo luminescence). The settings on record: for MTHFD1/MTHFD2 IC50 ratio: selectivity of MTHFD2 inhibition over MTHFD1, band.

As usually defined, the IC50 is the concentration needed to halve the response being measured. Consider `COC[C@H]1CN(c2cc(C)c3c4c(c(=O)oc3c2C)CN(C(=O)c2ccc(C(=O)NS(=O)(=O)N(C)C)c(N3CC5CC5C3)c2F)CC4)CCN1C` (stereo partly drawn) [Example 72, 2-(3-azabicyclo[3.1.0]hexan-3-yl)-N-(N,N-dimethylsulfamoyl)-3-fluoro-4-(8-((R)-3-(methoxymethyl)-4-methylpiperazin-1-yl)-7,10-dimethyl-5-oxo-1,3,4,5-tetrahydro-2H-chromeno[3,4-c]pyridine-3-carbonyl)benzamide], for which the IC50 in test [1] and in test [2] was 0.001 to 0.01 µM throughout.

As to `COC[C@H]1CN(c2cc(C)c3c4c(c(=O)oc3c2C)CN(C(=O)c2ccc(C(=O)NS(=O)(=O)C3(C)CC3)c(N3C5CCC3CC5)c2)CC4)CCN1C` [Example 48, (R)-2-(7-azabicyclo[2.2.1]heptan-7-yl)-4-(8-(3-(methoxymethyl)-4-methylpiperazin-1-yl)-7,10-dimethyl-5-oxo-1,3,4,5-tetrahydro-2H-chromeno[3,4-c]pyridine-3-carbonyl)-N-((1-methylcyclopropyl)sulfonyl)benzamide], the IC50 in test [1] lay within 0.001 to 0.01 µM. In test [2], the IC50 was 0.001 to 0.01 µM and the “MTHFD1/MTHFD2 IC50 ratio” value was “F (<3)”.

For the compound `COC[C@H]1CN(c2cc(F)c3c4c(c(=O)oc3c2C)CN(C(=O)c2cc(OC)c(C(=O)NS(=O)(=O)N3C5CCC3CC5)cc2F)CC4)CCN1C` [Example 305, (R)-N-((7-azabicyclo[2.2.1]heptan-7-yl)sulfonyl)-5-fluoro-4-(10-fluoro-8-(3-(methoxymethyl)-4-methylpiperazin-1-yl)-7-methyl-5-oxo-1,3,4,5-tetrahydro-2H-chromeno[3,4-c]pyridine-3-carbonyl)-2-methoxybenzamide], the IC50 in test [1] fell in the range of 1 to 5 µM. In addition, in test [2], the IC50 lay in the range of 0.01 to 0.1 µM and the “MTHFD1/MTHFD2 IC50 ratio” value is reported as “J (>30)”.

Regarding `COC[C@H]1CN(c2ccc3c4c(c(=O)oc3c2C)CN(C(=O)c2ccc(C(=O)NS(=O)(=O)C3(C)CC3)c(OC3CCCC3)c2F)CC4)CCN1C` [Example 9, (R)-2-(cyclopentyloxy)-3-fluoro-4-(8-(3-(methoxymethyl)-4-methylpiperazin-1-yl)-7-methyl-5-oxo-1,3,4,5-tetrahydro-2H-chromeno[3,4-c]pyridine-3-carbonyl)-N-((1-methylcyclopropyl)sulfonyl)benzamide], the IC50 in test [1] is 0.01 to 0.1 µM. In addition, in test [2], the IC50 was in the range of 0.01 to 0.1 µM and the “MTHFD1/MTHFD2 IC50 ratio” value is reported as “F (<3)”.

Turning to `COC[C@H]1CN(c2cc(C)c3c4c(c(=O)oc3c2C)CN(C(=O)c2cc(OC3CCCC3)c(C(=O)NS(=O)(=O)N(C)C)cc2F)CC4)CCN1C` [Example 110, (R)-2-(cyclopentyloxy)-N-(N,N-dimethylsulfamoyl)-5-fluoro-4-(8-(3-(methoxymethyl)-4-methylpiperazin-1-yl)-7,10-dimethyl-5-oxo-1,3,4,5-tetrahydro-2H-chromeno[3,4-c]pyridine-3-carbonyl)benzamide], the IC50 in test [1] lay in the range of 0.01 to 0.1 µM. In addition, in test [2], the IC50 fell in the range of 0.01 to 0.1 µM and the “MTHFD1/MTHFD2 IC50 ratio” value is “F (<3)”.

In the case of `CCOc1c(C(=O)NS(=O)(=O)N2CCCCC2)ccc(C(=O)N2CCc3c(c(=O)oc4c(C)c(N5CCN(C)[C@@H](COC)C5)cc(C)c34)C2)c1F` [Example 197, (R)-2-ethoxy-3-fluoro-4-(8-(3-(methoxymethyl)-4-methylpiperazin-1-yl)-7,10-dimethyl-5-oxo-1,3,4,5-tetrahydro-2H-chromeno[3,4-c]pyridine-3-carbonyl)-N-(piperidin-1-ylsulfonyl)benzamide], the half-maximal inhibitory concentration (IC50) in test [1] and in test [2] was 0.01 to 0.1 µM throughout. Besides, in test [2], the “MTHFD1/MTHFD2 IC50 ratio” value is recorded as “G (^ 3 to 9.0)”.

For `COC[C@H]1CN(c2cc(C)c3c4c(c(=O)oc3c2C)CN(C(=O)c2ccc(C(=O)NS(=O)(=O)C3(C)CC3)c(N3CC5CC5C3)c2F)CC4)CCN1C` (stereo partly drawn) [Example 71, 2-(3-azabicyclo[3.1.0]hexan-3-yl)-3-fluoro-4-(8-((R)-3-(methoxymethyl)-4-methylpiperazin-1-yl)-7,10-dimethyl-5-oxo-1,3,4,5-tetrahydro-2H-chromeno[3,4-c]pyridine-3-carbonyl)-N-((1-methylcyclopropyl)sulfonyl)benzamide], the concentration for half-maximal inhibition (IC50) lay within 0.01 to 0.1 µM in test [1] and 0.001 to 0.01 µM in test [2].

As to `CCOc1cc(C(=O)N2CCc3c(c(=O)oc4c(C)c(N5CCN(C)[C@@H](COC)C5)cc(Cl)c34)C2)c(F)cc1C(=O)NS(=O)(=O)N1CC2(CCC2)C1` [Example 300, (R)-N-((2-azaspiro[3.3]heptan-2-yl)sulfonyl)-4-(10-chloro-8-(3-(methoxymethyl)-4-methylpiperazin-1-yl)-7-methyl-5-oxo-1,3,4,5-tetrahydro-2H-chromeno[3,4-c]pyridine-3-carbonyl)-2-ethoxy-5-fluorobenzamide], the IC50 was in the range of 0.1 to 1 µM in test [1] and 0.01 to 0.1 µM in test [2].

Consider `COC[C@H]1CN(c2ccc3c4c(c(=O)oc3c2)CN(C(=O)c2cc(N(C)C)c(C(=O)NS(=O)(=O)N3C5CCC3CC5)cc2F)CC4)CCN1C` [Example 191, (R)-N-((7-azabicyclo[2.2.1]heptan-7-yl)sulfonyl)-2-(dimethylamino)-5-fluoro-4-(8-(3-(methoxymethyl)-4-methylpiperazin-1-yl)-5-oxo-1,3,4,5-tetrahydro-2H-chromeno[3,4-c]pyridine-3-carbonyl)benzamide], for which the IC50 in test [1] was greater than 5 µM; in test [2], 0.1 to 1 µM. Moreover, the “MTHFD1/MTHFD2 IC50 ratio” value in test [2] is “G (^ 3 to 9.0)”.

As to `COC[C@H]1CN(c2cc(C)c3c4c(c(=O)oc3c2C)CN(C(=O)c2ccc(C(=O)NS(=O)(=O)N(C)C)c(N3CCC3)c2)CC4)CCN1C` [Example 89, (R)-2-(azetidin-1-yl)-N-(N,N-dimethylsulfamoyl)-4-(8-(3-(methoxymethyl)-4-methylpiperazin-1-yl)-7,10-dimethyl-5-oxo-1,3,4,5-tetrahydro-2H-chromeno[3,4-c]pyridine-3-carbonyl)benzamide], in test [1], the IC50 was in the range of 0.001 to 0.01 µM. In test [2], the IC50 lay in the range of 0.001 to 0.01 µM and the “MTHFD1/MTHFD2 IC50 ratio” value is “F (<3)”.

Turning to `CCOc1c(C(=O)NS(=O)(=O)N2CC3CCC2C3)ccc(C(=O)N2CCc3c(c(=O)oc4c(C)c(N5CCN(C)[C@@H](COC)C5)ccc34)C2)c1F` (stereo partly drawn) [Example 230], the IC50 in test [1] is 0.1 to 1 µM. Besides, in test [2], the IC50 was in the range of 0.01 to 0.1 µM and the “MTHFD1/MTHFD2 IC50 ratio” value is recorded as “F (<3)”.

Regarding `COC[C@H]1CN(c2ccc3c4c(c(=O)oc3c2C)CN(C(=O)c2ccc(C(=O)NS(=O)(=O)C3(C)CC3)c(N(C)C)c2F)CC4)CCN1C` [Example 137, (R)-2-(dimethylamino)-3-fluoro-4-(8-(3-(methoxymethyl)-4-methylpiperazin-1-yl)-7-methyl-5-oxo-1,3,4,5-tetrahydro-2H-chromeno[3,4-c]pyridine-3-carbonyl)-N-((1-methylcyclopropyl)sulfonyl)benzamide], the IC50 in test [1] fell in the range of 0.1 to 1 µM. In test [2], the IC50 is 0.01 to 0.1 µM and the “MTHFD1/MTHFD2 IC50 ratio” value was “G (^ 3 to 9.0)”.

For `CCOc1cc(C(=O)N2CCc3c(c(=O)oc4c(C)c(N5CCN(C)[C@@H](COC)C5)cc(C)c34)C2)ccc1C(=O)NS(=O)(=O)N1C2CCC1CC2` [Example 227, (R)-N-((7-azabicyclo[2.2.1]heptan-7-yl)sulfonyl)-2-ethoxy-4-(8-(3-(methoxymethyl)-4-methylpiperazin-1-yl)-7,10-dimethyl-5-oxo-1,3,4,5-tetrahydro-2H-chromeno[3,4-c]pyridine-3-carbonyl)benzamide], the values for the IC50 in test [1] and in test [2] were 0.1 to 1 µM and 0.001 to 0.01 µM, respectively. For the same compound, the “MTHFD1/MTHFD2 IC50 ratio” value in test [2] was “H (>9.0 to 30)”.

Consider `COC[C@H]1CN(c2ccc3c4c(c(=O)oc3c2C)CN(C(=O)c2cc(N3CCC3)c(C(=O)NS(=O)(=O)N3CC5CC5C3)cc2F)CC4)CCN1C` (stereo partly drawn) [Example 203, N-((3-azabicyclo[3.1.0]hexan-3-yl)sulfonyl)-2-(azetidin-1-yl)-5-fluoro-4-(8-((R)-3-(methoxymethyl)-4-methylpiperazin-1-yl)-7-methyl-5-oxo-1,3,4,5-tetrahydro-2H-chromeno[3,4-c]pyridine-3-carbonyl)benzamide], for which, in test [1], the IC50 was in the range of 0.1 to 1 µM. In test [2], the IC50 was in the range of 0.01 to 0.1 µM and the “MTHFD1/MTHFD2 IC50 ratio” value is given as “G (^ 3 to 9.0)”.

For the compound `COC[C@H]1CN(c2ccc3c4c(c(=O)oc3c2Cl)CN(C(=O)c2ccc(C(=O)NS(=O)(=O)N3CCCC3)c(O[C@@H]3C[C@@H]5C[C@@H]5C3)c2F)CC4)CCN1C` [Example 62, 2-(((1R,3r,5S)-bicyclo[3.1.0]hexan-3-yl)oxy)-4-(7-chloro-8-((R)-3-(methoxymethyl)-4-methylpiperazin-1-yl)-5-oxo-1,3,4,5-tetrahydro-2H-chromeno[3,4-c]pyridine-3-carbonyl)-3-fluoro-N-(pyrrolidin-1-ylsulfonyl)benzamide], the IC50 in test [1] lay within 0.001 to 0.01 µM; in test [2] it was 0.01 to 0.1 µM. Also, in test [2], the “MTHFD1/MTHFD2 IC50 ratio” value is on record as “F (<3)”.
